In patent publication US4711898A, “4-quinolone derivatives having anti-inflammatory, anti-allergic, antitussive, expectorant and antithrombotic activity” (Nippon Shinyaku Co., Ltd., priority 1982, dated 1987):

Columns and labels:
[1] = system: passive cutaneous anaphylaxis (DNP-As homocytotropic antiserum); assay: passive cutaneous anaphylatic assay (PCA) in rats; format: in vivo, Wistar strain rats; conditions: 10 mg/kg orally, one hour before antigen; for inhibition in vivo at 10 mg/kg: Rattus norvegicus, po, 1 h, read-out: PCA Inhibition Ratio %; for PCA Inhibition Ratio %: Na salt
Protocol: (§1) The compounds of the present invention have been evaluated for their anti-allergenic action by passive cutaneous anaphylatic assay (PCA) in rats and by measuring the anti-SRS-A action using ileus of guinea pigs.
(i) Antiserum abundant in homocytotropic antibody is prepared by the same method as Tada and Okumura did (cf. Journal of Immunology, vol. 106, page 1002, 1971). Thus, 1 mg (calculated as an amount of protein) of DNP-As (2,4-dinitrophenylcoupled ascaris extract) prepared by methods of Strejan and Campbell (Journal of Immunology, vol. 98, p. 893, 1967) and of Eisen (Journal of Amer. Chem. Soc., vol. 75, p 4593, 1953) and 1×10^10pertussis vaccine are administered to each paw of Wistar strain rats (180 to 200 grams body weights) by dividing the dose by four. Five days later, 0.5 mg of DNP-As is administered into muscle of back. Eight days later from the initial immunization, blood is taken from discending aorta under anesthetizing with ether, the resulting serum is stored at -80° and is melted before use.
(ii) Effect of tested compounds is investigated as follows:
Anti-serum obtained by th method (i) is diluted with physiological saline solution double by double successively and 0.05 ml of each diluted solution is administered into the back of Wistar strain rats (140 to 160 grams body weight) intradermally. After 72 hours, a solution of 2 mg (calculated as protein) of DNP-As and 2.5 mg of Evans Blue dissolved in 1 ml of physiological saline solution is administered intraveously at a dose of 5 ml/kg. After 30 minutes from the antigen solution administration, the animals are killed and the diameters of blue spots which appeared at the place where antiserum was administered were measured. The PCA test is conducted by the same method as already described using a diluted solutions of antiserum which always show 10 mm or more of spot diameters and the effect of the test compounds is judged. Thus antiserum diluted solutions are administered into two places in the back. Test compounds are administered orally at the dose of 10 mg/kg one hour before administration of the antigen solution. From the skin of reacted parts of killed animals, leaked or emitted dyestuff is extracted and the amount of the dyestuff is measured. The inhibition ratio is calculated by the following expression: [formula] in which A' is an amount of dyestuff in the group treated with the test compounds and A is that in the control group.

[2] = system: SRS-A (slow reacting substance of anaphylaxis) contraction of ileum; assay: Anti-SRS-A action using ileus of guinea pigs; format: cell-based, Hartley strain male guinea pigs; conditions: 5 min, guinea pig ileum, SRS-A 20 units, compound five minutes before; for inhibition at 1 µM: Cavia porcellus, 1/1000 mM, read-out: 1/1000 mM SRS-A Inhibition Ratio %; for 1/1000 mM SRS-A Inhibition Ratio %: Na salt, 1 µM
Protocol: as §1
Anti-SRS-A action (An anti-acton against slow reacting substance of anaphylaxis).
Hartley strain male guinea pigs (300 to 350 grams body weight) are killed and 1.0 to 1.5 cm of ileum is immeidiately excised from ileocecal parts and is suspended in 10 ml of Tyrode solution (95% 02 -5% CO2 saturation) containing 10^-7 g/ml of atropine and 10^-6 g/ml of pyrilamine. SRS-A (20 units) (the amount of SRS-A showing the same contradiction as 5 ng of histamine is defined as 1 unit) prepared by using sensitized guinea pig lung is given to cause contraction there. Then antagonistic action of test compounds treated five minutes ago against the contraction is measured and recorded via isotonic transducer. [formula] in which A' is a height of contraction of SRS-A+test compound and A is that of SRS-A.

Compound	inhibition in vivo at 10 mg/kg [1]	inhibition at 1 µM [2]	also measured
CCOC(=O)c1cccc2c(=O)cc(-c3ccccc3F)[nH]c12 [2-Fluoro, Ethyl]	28.5%	33.3%	
CCOC(=O)c1cccc2c(=O)cc(-c3ccc(OC)cc3)[nH]c12 [4-Methoxy, Ethyl]	3.2%	20.3%	
O=C(O)c1ccc2c(c1)C(=O)CC(c1ccccc1)=N2 [Example 2, 2-Phenyl-4-quinolone-6-carboxylic acid]	22.5%	23.9%	
O=C(O)c1ccc2[nH]c(-c3ccccc3)cc(=O)c2c1 [Example 3, Sodium 2-phenyl-4-quinolone-6-carboxylate]	27.9%	85%	
CC(C)OC(=O)c1ccc2c(c1)C(=O)CC(c1ccccc1)=N2 [Example 5, Isopropyl 2-phenyl-4-quinolone-6-carboxylate]	26.2%	36.7%	
O=C(OCCc1ccccc1)c1ccc2c(c1)C(=O)CC(c1ccccc1)=N2 [Example 6, Phenethyl 2-phenyl-4-quinolone-6-carboxylate]	24.3%	22.8%	
COC(=O)c1ccc2c(c1)c(=O)cc(-c1ccccc1)n2C [Example 7, Methyl 1-methyl-2-phenyl-4-quinolone-6-carboxylate]	21.3%	100%	
Cn1c(-c2ccccc2)cc(=O)c2cc(C(=O)O)ccc21 [Example 8, 1-Methyl-2-phenyl-4-quinolone-6-carboxylic acid]	16.2%	22%	
COC(=O)c1ccc2c(c1)C(=O)C(C)C(c1ccccc1)=N2 (centres unmarked) [Example 9, Methyl 3-methyl-2-phenyl-4-quinolone-6-carboxylate]	26.8%	54.8%	
Cc1c(-c2ccccc2)[nH]c2ccc(C(=O)O)cc2c1=O [Example 10]	22.4%	21%	
C=CCc1c(-c2ccccc2)[nH]c2ccc(C(=O)OC)cc2c1=O [Example 11]	20.1%	37.5%	
C=CCc1c(-c2ccccc2)[nH]c2ccc(C(=O)O)cc2c1=O [Example 12]	17.5%	22.3%	
CCn1c(-c2ccccc2)cc(=O)c2cc(C(=O)OC)ccc21 [Example 13]	18.9%	25.4%	
CCn1c(-c2ccccc2)cc(=O)c2cc(C(=O)O)ccc21 [Example 14]	16.4%	28.9%	
CCCn1c(-c2ccccc2)cc(=O)c2cc(C(=O)OC)ccc21 [Example 15]	19.7%	65.3%	
CCCn1c(-c2ccccc2)cc(=O)c2cc(C(=O)O)ccc21 [Example 16]	23.4%	19.7%	
C=CCn1c(-c2ccccc2)cc(=O)c2cc(C(=O)OC)ccc21 [Example 17]	20.4%	22.7%	
C=CCn1c(-c2ccccc2)cc(=O)c2cc(C(=O)O)ccc21 [Example 18]	26.5%	24.3%	
CCCCCCn1c(-c2ccccc2)cc(=O)c2cc(C(=O)OC)ccc21 [Example 19]	27%	27.5%	
O=C(O)c1ccc2[nH]c(-c3ccccc3Cl)cc(=O)c2c1 [Example 23]			PCA Inhibition Ratio % ([1]; listed as 2-Chloro): 18.7%; 1/1000 mM SRS-A Inhibition Ratio % ([2]; listed as 2-Chloro): 24.9%
COC(=O)c1ccc2[nH]c(-c3ccccc3Br)cc(=O)c2c1 [Example 24]	23.4%	55.8%	
O=C(O)c1ccc2[nH]c(-c3ccccc3Br)cc(=O)c2c1 [Example 25]	17.2%	25.7%	
COC(=O)c1ccc2[nH]c(-c3ccccc3F)cc(=O)c2c1 [Example 26]	20.6%	38.5%	

Compound	inhibition in vivo at 10 mg/kg [1]	inhibition at 1 µM [2]	also measured
O=C(O)c1ccc2[nH]c(-c3ccccc3F)cc(=O)c2c1 [Example 27]	25.6%	23.4%	
O=C(O)c1ccc2[nH]c(-c3cccc(Cl)c3)cc(=O)c2c1 [Example 30]	43%	24.5%	
O=C(O)c1ccc2[nH]c(-c3cccc(Cl)c3)cc(=O)c2c1 [Example 31]			PCA Inhibition Ratio % ([1]; listed as 3-Chloro): 24.4%; 1/1000 mM SRS-A Inhibition Ratio % ([2]; listed as 3-Chloro): 25.5%
COC(=O)c1ccc2[nH]c(-c3ccc(Cl)cc3)cc(=O)c2c1 [Example 32]	24.4%	20.6%	
O=C(O)c1ccc2[nH]c(-c3ccc(Cl)cc3)cc(=O)c2c1 [Example 33]	22.3%	22.5%	
COC(=O)c1ccc2[nH]c(-c3ccc(Cl)cc3Cl)cc(=O)c2c1 [Example 34]	17.4%	19.3%	
O=C(O)c1ccc2[nH]c(-c3ccc(Cl)cc3Cl)cc(=O)c2c1 [Example 35]	39.4%	25.6%	
O=C(O)c1ccc2[nH]c(-c3ccc(Cl)cc3Cl)cc(=O)c2c1 [Example 36]			PCA Inhibition Ratio % ([1]; listed as 2,4-Dichloro): 20.4%; 1/1000 mM SRS-A Inhibition Ratio % ([2]; listed as 2,4-Dichloro): 14.5%
COC(=O)c1ccc2[nH]c(-c3ccc(Cl)c(Cl)c3)cc(=O)c2c1 [Example 37]	17.1%	24.3%	
O=C(O)c1ccc2[nH]c(-c3cc(Cl)ccc3Cl)cc(=O)c2c1 [Example 40]	25.4%	27.5%	
Cc1ccccc1-c1cc(=O)c2cc(C(=O)O)ccc2[nH]1 [Example 43]			PCA Inhibition Ratio % ([1]; listed as 2-Methyl): 24.8%; 1/1000 mM SRS-A Inhibition Ratio % ([2]; listed as 2-Methyl): 17.3%
CCc1ccccc1-c1cc(=O)c2cc(C(=O)OC)ccc2[nH]1 [Example 44]	18%	41.3%	
CCc1ccccc1-c1cc(=O)c2cc(C(=O)O)ccc2[nH]1 [Example 45]	24.2%	25.4%	
COC(=O)c1ccc2[nH]c(-c3ccc(C)cc3)cc(=O)c2c1 [Example 46]	27.3%	19.8%	
Cc1ccc(-c2cc(=O)c3cc(C(=O)O)ccc3[nH]2)cc1 [Example 47]	17.3%	18.9%	
COC(=O)c1ccc2[nH]c(-c3ccc(C(C)C)cc3)cc(=O)c2c1 [Example 48]	26.4%	24.2%	
CC(C)c1ccc(-c2cc(=O)c3cc(C(=O)O)ccc3[nH]2)cc1 [Example 49]	25.2%	18.8%	
CCCCCc1ccc(-c2cc(=O)c3cc(C(=O)OC)ccc3[nH]2)cc1 [Example 50]	19.4%	36%	
CCCCCc1ccc(-c2cc(=O)c3cc(C(=O)O)ccc3[nH]2)cc1 [Example 51]	22.7%	61.4%	
COC(=O)c1ccc2[nH]c(-c3cccc(C(F)(F)F)c3)cc(=O)c2c1 [Example 52]	25%	21.3%	
O=C(O)c1ccc2[nH]c(-c3cccc(C(F)(F)F)c3)cc(=O)c2c1 [Example 53]	22.4%	30%	
COC(=O)c1ccc2[nH]c(-c3ccc(C)cc3C)cc(=O)c2c1 [Example 54]	18.9%	22.4%	
Cc1ccc(-c2cc(=O)c3cc(C(=O)O)ccc3[nH]2)c(C)c1 [Example 55]	16.8%	17.5%	
